Tested on: subgenomic HCV replicon in Huh-7 cells
Assay: microbe, parasite or virus in culture
Format: cell-based
Details: Hepatitis C virus, Huh-7, 72 h, read-out: EC50 (50% inhibitory concentration) in HCV replicon cells

Structure (SMILES): [2H]C([2H])(OP(=O)(N[C@H](C)C(=O)OC(C)C)Oc1ccccc1)[C@@]1(F)O[C@@H](n2cnc3c(OCC)nc(N)nc32)[C@](C)(F)[C@@H]1O (stereo partly shown) [Compound 2]
- EC50: < 1000 nM

From patent US9758544B2 (priority 2014, dated 2017)
